Eleven compounds from PubChem BioAssay (NCI) can be followed below.

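Each compound was tested at five concentrations against cells in 96-well plates for 48 hours. At the GI50, growth is halved. At the TGI there is no net growth.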

Common to all, as to experiment: inhibition of tumour cell growth, NCI panel, 48 h
Assay [1] has as its system DU-145 prostate.
Assay [2] relates to HCT-116 colon.
Assay [3] has as its system HOP-92 NSCLC.
For assay [4], the system named is HS 578T breast.
Assay [5] deals with K-562 leukemia.
For assay [6], the system named is MOLT-4 leukemia.
The test system of assay [7] is OVCAR-5 ovarian.
Assay [8] relates to RPMI-8226 leukemia.
For assay [9], the system named is SF-539 CNS.
Assay [10] has as its system UO-31 renal.

Take `O=C1C=CC(=O)C2C1C1(Cl)C(Cl)=C(Cl)C2(Cl)C1(Cl)Cl` (stereo not drawn): the GI50 was 3.73 µM in [1]; 3.51 µM in [2]; 1.69 µM in [3]; 2.51 µM in [4]; 2.58 µM in assay [5]; 2.54 µM in [6]. For the same compound, the GI50 is 12.4 µM in [7], 4.78 µM in assay [8], 6.46 µM in assay [9] and 3.41 µM in assay [10]. Moreover, the TGI in assay [1] was found to be 15.6 µM; in assay [2] it was 14.6 µM; in [3], 6.88 µM; in [4], 7.92 µM; in assay [5] it was 10.8 µM; in [6] it was 14.4 µM. Besides, the TGI in assay [7] was 31.1 µM; in assay [8] it was over 100 µM; in assay [9] it was 23.2 µM; in assay [10] it was 16.1 µM.
As for `COC(=O)c1ccc2[nH]c(O)c(C(=Nc3ccc(N(C)C(=O)CN4CCN(C)CC4)cc3)c3ccc4c(c3)OCO4)c2c1`, the GI50 in assay [1] was 1.03 µM; in [2], 0.197 µM; in assay [3] it was 2.09 µM; in assay [4] it was 0.144 µM; in assay [5], 0.056 µM; in assay [6] it was 0.323 µM. Further, the GI50 in assay [7] is 1.71 µM; in assay [8] it was 0.655 µM; in assay [9], 0.341 µM; in assay [10], 1.3 µM. For the same compound, the TGI in assay [1] is 6.06 µM; in [2], 1.52 µM; in assay [3], 7.75 µM; in [4], 2.56 µM; in assay [5] it was 6.16 µM; in [6], 2.4 µM. The TGI in assay [7] turned out to be 3.72 µM; in [8], 2.83 µM; in assay [9], 1.31 µM; in assay [10] it was 3.71 µM.
As to `COc1cccc2c1C(=N)c1c(O)c3c(c(O)c1C2=O)C[C@@](O)(C(C)=O)C[C@@H]3O[C@H]1C[C@H](N)[C@H](O)[C@H](C)O1`, the GI50 in assay [1] is 0.292 µM; in [2] it was 0.277 µM; in [4] it was 1.66 µM; in assay [5], 0.322 µM; in [6], 0.0428 µM; in [7], 0.512 µM. For the same compound, the GI50 in assay [8] is 0.255 µM; in [9], 0.174 µM; in [10], 2.24 µM. For the same compound, the TGI in [1] came to 1.72 µM; in assay [2], 6.6 µM; in [3] it was 7.35 µM; in assay [4], 8.31 µM; in assay [5], 10.9 µM; in assay [6], 2.89 µM. The TGI in [7] was 5.68 µM; in [8], 4.03 µM; in assay [9] it was 1.48 µM; in [10] it was 19.9 µM.
On to `O=C(/C=C/c1ccccc1)Nc1ncc(Cc2ccccc2Cl)s1`, for which the GI50 in assay [1] was 0.41 µM; in [2] it was 0.375 µM; in assay [3], 1.26 µM; in assay [4], 0.302 µM; in [5], 0.223 µM; in assay [6], 0.459 µM. The GI50 in [7] is 0.511 µM; in assay [8] it was 0.335 µM; in assay [9] it was 0.223 µM; in assay [10] it was 0.614 µM. Further, the TGI in [1] was over 100 µM; in [2], over 100 µM; in [3] it was over 100 µM; in [4] it was over 24.7 µM; in [5], over 100 µM; in assay [6] it was over 100 µM. In addition, the TGI was over 100 µM in assay [7], 0.634 µM in assay [9] and over 100 µM in [10].
Regarding `O=C1C(=O)c2ccccc2C(O)=C1C(C1=C(O)c2ccccc2C(=O)C1=O)c1ccc(Cl)cc1`, the TGI in assay [1] came out at 10.3 µM; in [2] it was 18.2 µM; in [3], 44.1 µM; in [4] it was 66.4 µM; in assay [5] it was 39.2 µM; in [6] it was 19.3 µM. Moreover, the TGI in [7] is 17.3 µM; in [8], over 39.2 µM; in assay [9] it was 32.9 µM; in assay [10], 24.5 µM.
For `CC1(C)N=C(N)N=C(N)N1c1ccc(CCC(=O)Nc2ccc(S(=O)(=O)F)cc2)c(Cl)c1`, the GI50 in [1] is 0.593 µM; in assay [2] it was 0.268 µM; in assay [3], 6.54 µM; in assay [4], over 84.7 µM; in assay [5], 0.342 µM; in assay [6], 1.2 µM. Further, the GI50 in assay [7] was 2.4 µM; in assay [8], 0.515 µM; in [9], 0.509 µM; in [10], 63.6 µM. Moreover, the TGI in assay [1], in assay [2], in assay [3], in assay [4], in assay [5] and in assay [6] was over 100 µM each time. The TGI in [7] is over 100 µM; in assay [8], over 100 µM; in assay [9] it was over 38.7 µM; in assay [10], over 100 µM.
With `CCOc1cccc(/C=N/NC(=O)c2cccc(Nc3ccnc(C(F)(F)F)c3)c2)c1O`, the GI50 in [1] is 1.1 µM; in assay [2] it was 0.477 µM; in assay [3] it was 5.21 µM; in [4], 5.53 µM; in assay [5], 1.32 µM; in assay [6], 0.232 µM. The GI50 in assay [7] is 2.33 µM; in assay [8], 2.16 µM; in assay [9], 1.32 µM; in assay [10] it was 0.717 µM. Further, the TGI in assay [1] is over 47.3 µM; in assay [2], over 69.4 µM; in assay [3] it was over 100 µM; in assay [4], 72.7 µM; in assay [5], 30.6 µM; in [6], 2.08 µM. For the same compound, the TGI in assay [7] is 60.7 µM; in assay [8] it was over 100 µM; in assay [9], 10.6 µM; in assay [10], 26.2 µM.
For `CC/C=C\C[C@H]1CC=C2C(=O)C=C[C@@H]2CC=CCCCC(=O)O[C@@H](CCCCC)CC=C2C(=O)C=C[C@@H]2CC=CCCCC(=O)O[C@@H](CCCCC)CC=C2C(=O)C=C[C@@H]2CC=CCCCC(=O)O[C@@H](CCCCC)CC=C2C(=O)C=C[C@@H]2CC=CCCCC(=O)O1`, the GI50 in assay [1] was 2.68 µM; in assay [2], 1.3 µM; in [3], 1.53 µM; in assay [4], 2.68 µM; in [5], 2.5 µM; in assay [6], 2.39 µM. The GI50 in [7] is 4.02 µM; in assay [8] it was 1.83 µM; in [9], 2.22 µM; in [10], 1.41 µM. In addition, the TGI is over 7.9 µM in assay [1]; 3.06 µM in [2]; 4.32 µM in [3]; over 7.9 µM in assay [4]; over 7.9 µM in assay [5]; over 7.9 µM in assay [6]. The TGI in assay [7] was over 7.9 µM; in [8], 5.83 µM; in [9] it was over 7.9 µM; in assay [10], 2.84 µM.
Consider `CCN1C(=O)c2ccc3c4c(ccc(c24)C1=O)C(=O)N(CCCNCc1ccccc1OC)C3=O`, for which the GI50 in assay [1] is 1.22 µM; in assay [2], 0.329 µM; in assay [3], 2.6 µM; in [4], 2.21 µM; in [5] it was 0.936 µM; in [6] it was 0.891 µM. For the same compound, the GI50 in [7] was 1.35 µM; in assay [8], 1.64 µM; in assay [9], 1.16 µM; in [10], 1.39 µM. For the same compound, the TGI in [1] is 2.5 µM; in [2] it was 1.14 µM; in assay [3], 5.5 µM; in [4] it was 8.35 µM; in assay [5] it was 4.27 µM; in assay [6] it was 4.37 µM. The TGI in [7] is 3.74 µM; in assay [8], 5.53 µM; in assay [9] it was 2.47 µM; in assay [10] it was 3.58 µM.
As for `CCCOC(=O)N[C@H]1CCc2c(Cl)c(OC)c(OC)c(OC)c2-c2ccc(SC)c(=O)cc21`, the GI50 was under 0.01 µM in [1]; under 0.01 µM in assay [2]; under 0.0119 µM in [3]; under 0.01 µM in assay [4]; under 0.01 µM in assay [5]; under 0.01 µM in assay [6]. Besides, the GI50 is under 0.013 µM in assay [7], under 0.01 µM in assay [8], under 0.01 µM in assay [9] and 0.0747 µM in assay [10]. Moreover, the TGI was 0.0575 µM in [1]; 12.7 µM in assay [2]; 4.65 µM in assay [3]; 20.6 µM in assay [4]; over 100 µM in assay [5]; 23.6 µM in [6]. Also, the TGI is over 76.7 µM in assay [7], 7.73 µM in [8], under 0.0356 µM in [9] and 27.9 µM in assay [10].
Consider `CN(c1ccc(NC(=O)Nc2c(Cl)cccc2Cl)cc1)c1ccnc(Nc2cccc(CS(C)(=O)=O)c2)n1`, for which the GI50 was 3.07 µM in assay [1]; 1.3 µM in assay [2]; 2.88 µM in assay [3]; 4.35 µM in assay [4]; 1.54 µM in assay [5]; over 25 µM in assay [6]. The GI50 in [7] was 6.2 µM; in assay [8], 3.68 µM; in assay [9] it was 0.304 µM; in assay [10] it was 4.28 µM. Further, the TGI in assay [1] is 6.72 µM; in [2] it was 7.45 µM; in assay [3], 12 µM; in [4], over 17.6 µM; in assay [5], over 25 µM; in [6], over 25 µM. Further, the TGI in assay [7] is over 19.5 µM; in assay [8], over 22.7 µM; in [9], 6.4 µM; in assay [10], 13.3 µM.
